From US10640495B2, “Heterocycle derivatives having TrkA inhibitory activity” (Shionogi & Co., Ltd., priority 2015, dated 2020)
pIC50: −log10 of the molar value.

Target: human TrkA (Homo sapiens (Human), UniProt P04629)
Assay: Human TrkA inhibition assay (Test Example 2)
Format: biochemical
Conditions: Table 152, human TrkA inhibition; read-out: IC50_nM
Outline: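 Recombinant TrkA (1 nmol/L) was preincubated 15 min at room temperature with compound in HEPES/MgCl2/DTT buffer, then reacted with FL-peptide 27 (1.5 μmol/L) and ATP (500 μmol/L) for 120 min at 37 °C. After EDTA stop, substrate phosphorylation was read by microfluidic mobility shift. IC50 came from logistic regression over 3-fold dilution series.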

human TrkA, sequence (P04629 440-796): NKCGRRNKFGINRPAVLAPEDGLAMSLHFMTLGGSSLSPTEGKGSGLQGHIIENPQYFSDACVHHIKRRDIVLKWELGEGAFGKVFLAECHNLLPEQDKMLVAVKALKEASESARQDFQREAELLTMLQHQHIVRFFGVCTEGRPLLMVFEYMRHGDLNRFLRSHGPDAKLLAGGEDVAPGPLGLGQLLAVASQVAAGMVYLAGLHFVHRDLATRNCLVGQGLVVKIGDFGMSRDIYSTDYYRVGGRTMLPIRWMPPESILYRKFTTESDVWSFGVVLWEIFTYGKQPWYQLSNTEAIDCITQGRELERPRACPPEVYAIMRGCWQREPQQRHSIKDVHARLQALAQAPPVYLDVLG

Row | pIC50 | SMILES
1 | > 7.00 | CCN1CCC(NC(=O)c2ccc(-c3nn(-c4ccccc4)c(NC(=O)N[C@@H]4CC(CCOC)O[C@H]4c4ccccc4)c3C)cc2)CC1 (stereo partly shown) [Compound I-19]

Same assay, conditions: Table 153, human TrkA inhibition; read-out: IC50

Row | pIC50 | SMILES
2 | > 7.00 | COCCN1C[C@@H](NC(=O)Nc2c(C)c(-c3cnc4c(c3)nnn4C)nn2-c2ccccc2)[C@H](c2ccnc(F)c2)O1 (racemic) [Compound I-90]

Same assay, conditions: Table 156, human TrkA inhibition; read-out: IC50

Row | pIC50 | SMILES
3 | > 7.00 | COCCN1C[C@@H](NC(=O)Nc2c(C)c(-c3ccc(N4CC(OC)C4)nc3)nn2-c2ccccc2)[C@H](c2ccc(F)c(F)c2)O1 [Compound I-558]
4 | > 7.00 | COCCN1C[C@@H](NC(=O)Nc2c(C)c(OCCN(C)C)nn2-c2ccccc2)[C@H](c2ccc(F)c(F)c2)O1 [Compound I-572]
5 | > 7.00 | COCCN1C[C@@H](NC(=O)Nc2c(C)c(OC3CN(C(=O)OC(C)(C)C)C3)nn2-c2ccccc2)[C@H](c2ccc(F)c(F)c2)O1 [Compound I-573]
6 | > 7.00 | COCCN1C[C@@H](NC(=O)Nc2c(C)c(OC3CNC3)nn2-c2ccccc2)[C@H](c2ccc(F)c(F)c2)O1 [Compound I-574]
7 | > 7.00 | COCCN1C[C@@H](NC(=O)Nc2c(C)c(OCC3CN(C)CCO3)nn2-c2ccccc2)[C@H](c2ccc(F)c(F)c2)O1 (stereo partly shown) [Compound I-580]

Same assay, conditions: Table 157, human TrkA inhibition; read-out: IC50

Row | pIC50 | SMILES
8 | > 7.00 | COCCN1C[C@@H](NC(=O)Nc2c(C)c(-c3cnc(N4CC[C@H](OC)C4)nc3)nn2-c2ccccc2)[C@H](c2ccnc(F)c2)O1 [Compound I-584]
9 | > 7.00 | COCCN1C[C@@H](NC(=O)Nc2c(C)c(-c3cnc(N4CC[C@@H](OC)C4)nc3)nn2-c2ccccc2)[C@H](c2ccnc(F)c2)O1 [Compound I-585]
10 | > 7.00 | COCCN1C[C@@H](NC(=O)Nc2c(C)c(-c3cnc(N4CC[C@H](N(C)C)C4)nc3)nn2-c2ccccc2)[C@H](c2ccnc(F)c2)O1 [Compound I-586]
11 | > 7.00 | COCCN1C[C@@H](NC(=O)Nc2c(C)c(-c3cnc(N4CC[C@@H](N(C)C)C4)nc3)nn2-c2ccccc2)[C@H](c2ccnc(F)c2)O1 [Compound I-587]
12 | > 7.00 | COCCN1C[C@@H](NC(=O)Nc2c(C)c(-c3cnc(N4C[C@H]5C[C@@H]4CO5)nc3)nn2-c2ccccc2)[C@H](c2ccnc(F)c2)O1 [Compound I-590]
13 | > 7.00 | COCCN1C[C@@H](NC(=O)Nc2c(C)c(-c3cnc(N4C[C@@H]5C[C@H]4CO5)nc3)nn2-c2ccccc2)[C@H](c2ccnc(F)c2)O1 [Compound I-591]
14 | > 7.00 | COCCN1C[C@@H](NC(=O)Nc2c(C)c(-c3cnc(N4CCN(C)[C@H](C)C4)nc3)nn2-c2ccccc2)[C@H](c2ccnc(F)c2)O1 [Compound I-592]
15 | > 7.00 | COCCN1C[C@@H](NC(=O)Nc2c(C)c(-c3cnc(N4CCN(C)[C@@H](C)C4)nc3)nn2-c2ccccc2)[C@H](c2ccnc(F)c2)O1 [Compound I-593]
16 | > 7.00 | COCCN1C[C@@H](NC(=O)Nc2c(C)c(-c3cnc(N4CCN(C)C[C@H]4C)nc3)nn2-c2ccccc2)[C@H](c2ccnc(F)c2)O1 [Compound I-594]
17 | > 7.00 | CNC(=O)c1cc(-c2nn(-c3ccccc3)c(NC(=O)N[C@@H]3CN(CCOC)O[C@H]3c3ccc(F)c(F)c3)c2C)ccn1 [Compound I-595]
18 | > 7.00 | CCN1C[C@@H](NC(=O)Nc2c(C)c(OCCC3CCN(C(=O)OC(C)(C)C)C3)nn2-c2ccccc2)[C@H](c2ccc(F)c(F)c2)O1 (stereo partly shown) [Compound I-597]
19 | > 7.00 | COCCN1C[C@@H](NC(=O)Nc2c(C)c(-c3cnc(N4CCN(C)CC4)nc3)nn2-c2ccccc2)[C@H](c2ccc(F)c(F)c2)O1 [Compound I-598]
20 | > 7.00 | CCN1C[C@@H](NC(=O)Nc2c(C)c(OCCC3CCNC3)nn2-c2ccccc2)[C@H](c2ccc(F)c(F)c2)O1 (stereo partly shown) [Compound I-599]
21 | > 7.00 | COCCN1C[C@@H](NC(=O)Nc2c(C)c(OC3CN(C)C3)nn2-c2ccccc2)[C@H](c2ccc(F)c(F)c2)O1 [Compound I-600]
22 | > 7.00 | COCCN1C[C@@H](NC(=O)Nc2c(C)c(OC3CCN(C(=O)OC(C)(C)C)CC3)nn2-c2ccccc2)[C@H](c2ccc(F)c(F)c2)O1 [Compound I-601]
23 | > 7.00 | COCCN1C[C@@H](NC(=O)Nc2c(C)c(OC3CCNCC3)nn2-c2ccccc2)[C@H](c2ccc(F)c(F)c2)O1 [Compound I-602]

Row | pIC50 | SMILES
24 | > 7.00 | COCCN1C[C@@H](NC(=O)Nc2c(C)c(OC3CCN(C)CC3)nn2-c2ccccc2)[C@H](c2ccc(F)c(F)c2)O1 [Compound I-603]
25 | > 7.00 | CCN1CCC(Oc2nn(-c3ccccc3)c(NC(=O)N[C@@H]3CN(CCOC)O[C@H]3c3ccc(F)c(F)c3)c2C)CC1 [Compound I-604]
26 | > 7.00 | COCCN1C[C@@H](NC(=O)Nc2c(C)c(OCC3COC(C)(C)O3)nn2-c2ccccc2)[C@H](c2ccc(F)c(F)c2)O1 (stereo partly shown) [Compound I-614]
27 | > 7.00 | COCCN1C[C@@H](NC(=O)Nc2c(C)c(OCC(O)CO)nn2-c2ccccc2)[C@H](c2ccc(F)c(F)c2)O1 (stereo partly shown) [Compound I-615]
28 | > 7.00 | COCCN1C[C@@H](NC(=O)Nc2c(C)c(-c3ccnc(CO)c3)nn2-c2ccccc2)[C@H](c2ccc(F)c(F)c2)O1 [Compound I-617]
29 | > 7.00 | COCCN1C[C@@H](NC(=O)Nc2c(C)c(-c3ccnc(CN(C)C)c3)nn2-c2ccccc2)[C@H](c2ccc(F)c(F)c2)O1 [Compound I-618]
30 | > 7.00 | COCCN1C[C@@H](NC(=O)Nc2c(C)c(CO)nn2-c2ccccc2)[C@H](c2ccc(F)c(F)c2)O1 [Compound I-619]
31 | > 7.00 | COCCN1C[C@@H](NC(=O)Nc2c(C)c(-c3cnc(OC)c(COC(C)=O)c3)nn2-c2ccccc2)[C@H](c2ccc(F)c(F)c2)O1 [Compound I-636]
32 | > 7.00 | COCCN1C[C@@H](NC(=O)Nc2c(C)c(-c3cnc(OC)c(CO)c3)nn2-c2ccccc2)[C@H](c2ccc(F)c(F)c2)O1 [Compound I-637]
33 | 6.00 to 7.00 | COCCN1C[C@@H](NC(=O)Nc2c(C)c(CN(C)C)nn2-c2ccccc2)[C@H](c2ccc(F)c(F)c2)O1 [Compound I-640]
34 | > 7.00 | COCCN1C[C@@H](NC(=O)Nc2c(C)c(CCN(C)C)nn2-c2ccccc2)[C@H](c2ccc(F)c(F)c2)O1 [Compound I-641]
35 | > 7.00 | COCCN1C[C@@H](NC(=O)Nc2c(C)c(-c3ccnc(CCN(C)C)c3)nn2-c2ccccc2)[C@H](c2ccc(F)c(F)c2)O1 [Compound I-643]
36 | > 7.00 | CCN1C[C@@H](NC(=O)Nc2c(C)c(OCC3CNC(=O)O3)nn2-c2ccccc2)[C@H](c2ccc(F)c(F)c2)O1 (stereo partly shown) [Compound I-675]
37 | > 7.00 | CCN1C[C@@H](NC(=O)Nc2c(C)c(OC(C)C3CCN(C)CC3)nn2-c2ccccc2)[C@H](c2ccc(F)c(F)c2)O1 (stereo partly shown) [Compound I-679]
38 | > 7.00 | COCCN1C[C@@H](NC(=O)Nc2c(Br)c(-c3cnc(OC)nc3)nn2-c2ccccc2)[C@H](c2ccnc(F)c2)O1 [Compound I-680]

Row | SMILES | pIC50
39 | COCCN1C[C@@H](NC(=O)Nc2c(C)c(CO[Si](C)(C)C(C)(C)C)nn2-c2ccccc2)[C@H](c2ccc(F)c(F)c2)O1 [Compound I-605] | 6.00 to 7.00

Same assay, conditions: human TrkA 1 nmol/L, ATP 500 μmol/L, 120 min at 37° C.; read-out: IC50 values (TrkA phosphorylation inhibition)

Row | pIC50 | SMILES
40 | 8.80 | COCCN1C[C@@H](NC(=O)Nc2c(C)c(-c3cnc4c(cnn4C)c3)nn2-c2ccccc2)[C@H](c2ccnc(F)c2)O1 (racemic) [Compound I-40]
41 | 8.66 | COCCN1C[C@@H](NC(=O)Nc2c(C)c(-c3cnc(OC)nc3)nn2-c2ccccc2)[C@H](c2cnc(F)c(F)c2)O1 (racemic) [Compound I-57]
42 | 8.52 | COCC[C@@H]1C[C@@H](NC(=O)Nc2c(C)c(-c3cnc4c(c3)nnn4C)nn2-c2ccccc2)[C@H](c2ccnc(F)c2)O1 [Compound I-275]
43 | 8.85 | COCCN1C[C@@H](NC(=O)Nc2c(C)c(-c3ccc(CN(C)C)nc3)nn2-c2ccccc2)[C@H](c2ccc(F)c(F)c2)O1 [Compound I-638]
44 | 9.28 | COCCN1C[C@@H](NC(=O)Nc2c(C)c(-c3cnc(OC)c(CN(C)C)c3)nn2-c2ccccc2)[C@H](c2ccc(F)c(F)c2)O1 [Compound I-639]

Test system: not listed separately
Assay: Clearance test, intravenous administration in SD rats (Test Example 7)
Format: in vivo
Conditions: rat, plasma, intravenous administration 0.5 mg/kg or 1 μmol/kg, read-out: Total Clearance (CLtot)
Description: Materials and Methods for Experiments • (1) Experimental animals: SD rats were used. • (2) Rearing condition: SD rats were allowed free access to solid feed and sterilized tap water. • (3) Setting of dosage and grouping: Intravenous administration was performed with the predetermined dosage. Grouping was set as below. (Dosage is changed per compound) Intravenous administration 0.5 mg/kg or 1 μmol/kg (n=2) • (4) Preparation of administration solutions: Administration was performed after solubilization by using dimethylacetamide/propylene glycol=1/1 or dimethyl sulfoxide/propylene glycol=1/1 as the solvent. • (5) Routes of administration: Intravenous administration was performed from caudal vein by syringes with needle. • (6) Evaluation items: Blood was collected serially and concentration of a compound of the present invention in plasma was measured by LC/MS/MS. • (7) Statistical analysis: About transition of concentration of a compound of the present invention in plasma, Total Clearance (CLtot) of a compound of the present invention was calculated by non-linear least-squares method program, WinNonlin (a registered trademark).

Row | clearance [mL/min/kg] | SMILES
45 | 2.82 | COCCN1C[C@@H](NC(=O)Nc2c(C)c(-c3cnc4c(cnn4C)c3)nn2-c2ccccc2)[C@H](c2ccnc(F)c2)O1 (racemic) [Compound I-40]
46 | 7.93 | COCCN1C[C@@H](NC(=O)Nc2c(C)c(-c3cnc(OC)nc3)nn2-c2ccccc2)[C@H](c2cnc(F)c(F)c2)O1 (racemic) [Compound I-57]
47 | 6.35 | COCCN1C[C@@H](NC(=O)Nc2c(C)c(-c3cnc4c(c3)nnn4C)nn2-c2ccccc2)[C@H](c2ccnc(F)c2)O1 (racemic) [Compound I-90]
48 | 15.6 | CCN1CCC(NC(=O)c2ccc(-c3nn(-c4ccccc4)c(NC(=O)N[C@@H]4CC(CCOC)O[C@H]4c4ccccc4)c3C)cc2)CC1 (stereo partly shown) [Compound I-19]
49 | 3.73 | COCC[C@@H]1C[C@@H](NC(=O)Nc2c(C)c(-c3cnc4c(c3)nnn4C)nn2-c2ccccc2)[C@H](c2ccnc(F)c2)O1 [Compound I-275]
